Laboratory results from patent US20240261204A1, “ASCORBIC ACID POLYPEPTIDE DERIVATIVE, PREPARATION METHOD THEREFOR, AND APPLICATION THEREOF” (HARVEST BIOTECH CO., LTD, priority 2021, published 2024).

How the values were obtained:
[1] = tested on: Human immortalized keratinocytes HaCaT; details: 24.25 μM; HaCaT cells
Description: It was tested whether ATP in HaCaT cells would be affected by EAC-L-carnosine. Human immortalized keratinocytes HaCaT having been treated with the test substance were fully lysed using a certain amount of cell lysate, and centrifuged at 4° C. and 12000 g for 5 min. Supernatant was taken, and cell lysis samples of each experimental group were added to a 96-well assay plate (opaque) at 20 μL/well. ATP detection solution was further added at 100 μL/well. The plate was left to stand at room temperature for 3˜5 min. Self-luminescence intensity was detected using a full-waveband plate reader.

[2] = tested on: HFF human foreskin fibroblast; assay: Fibroblast anti-aging repair test under UVA photoaging stress; assay type: cell-based; details: about 24 μM/10 ppm; UVA 5 J/cm^2
Description: 100 μL of serum-free culture medium was added.
HYP (cell lysate) content detection: a hydroxyproline (HYP) content detection kit was used. First, a HYP standard was used for detection and a standard curve was plotted, and then a HYP […] content contained in the fibroblast lysate diluted at an appropriate ratio was measured.
Type I collagen content detection: human type I collagenase (Col I) immunization kit was used for ELISA detection. First, a type I collagen standard was used for detection and a standard curve was plotted, and then a collagen content contained in the fibroblast supernatant diluted at an appropriate ratio was measured.

Skin [3] = details: GB17149.2-1997
Blood cell = details: Toxicology in Vitro 13 (1999) 343~354
[4] = tested on: human primary fibroblasts FB; assay: Synthesis test of type I collagen of fibroblast; assay type: cell-based; details: 24.25 μM/10 ppm; FB supernatant, ELISA
Description: According to Anti-wrinkly and Firming Lifting Efficacy Test of Cosmetics—In vitro Test Method of Collagen I Contents with fibroblasts (Association Standard T/SHRH 032-2020), human primary fibroblasts FB were used to measure influence of each raw material group on collagen secretion of FB at a concentration (24.25 μM/10 ppm).
The plate was placed in a carbon dioxide incubator for incubation for 24 h+2 h. After incubation was finished, 200 μL of cell culture supernatant was collected per well in a 1.5 mL sterile centrifuge tube, and stored frozen in an ultra-low temperature freezer at −80° C.
Human type I collagenase immunization kit was used for ELISA detection. First, a standard was used for detection and a standard curve was plotted, and then a collagen content contained in the fibroblast supernatant diluted at an appropriate ratio was measured.

tyrosinase = biological target: T1, tyrosinase (Mus musculus, UniProt P11344); assay: Enzyme activity test for tyrosinase in α-MSH-induced B16 cells; assay type: cell-based; details: 24.25 μM/10 ppm; inducer 0.1 μg/mL (63 nM) α-MSH
T1 construct: endogenous in cells; host or cells: B16 mouse melanoma cells
T1 sequence (P11344 19-533): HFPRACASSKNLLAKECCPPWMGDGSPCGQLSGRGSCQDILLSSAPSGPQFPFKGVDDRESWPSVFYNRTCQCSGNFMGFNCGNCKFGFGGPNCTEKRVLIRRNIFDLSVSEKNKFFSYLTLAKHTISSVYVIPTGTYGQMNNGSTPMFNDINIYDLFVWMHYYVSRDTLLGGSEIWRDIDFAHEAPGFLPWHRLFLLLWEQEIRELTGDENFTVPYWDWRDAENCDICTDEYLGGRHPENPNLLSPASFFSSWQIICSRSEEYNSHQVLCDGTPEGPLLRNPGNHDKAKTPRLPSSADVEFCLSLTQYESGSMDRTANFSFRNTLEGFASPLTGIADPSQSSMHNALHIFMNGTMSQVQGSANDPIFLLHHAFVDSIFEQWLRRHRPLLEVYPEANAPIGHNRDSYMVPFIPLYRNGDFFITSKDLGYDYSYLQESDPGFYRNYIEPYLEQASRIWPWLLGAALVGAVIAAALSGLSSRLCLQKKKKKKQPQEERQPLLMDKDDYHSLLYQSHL
Description: (§1) A method for in vitro testing whitening efficacy for B16 mouse melanoma cells was designed according to Association Standard T/SHRH 021-2019 for cosmetics whitening efficacy test, in combination with NCBI and CNKI literature research:
Cell samples having been treated by an inducer (α-MSH) and a to-be-tested substance were placed in a 96-well cell culture plate, for repeated freeze-thawing lysis. To each well 100 μL of 0.1˜0.5% levodopa was added, incubation was performed in a 37° C. cell incubator for about 2 h. the absorbancy (OD) value was measured at 450 nm wavelength.

B16 mouse melanoma cells = assay: Measurement of melanin content in α-MSH-induced B16 cells; assay type: cell-based; details: for melanin inhibition (in words): 24.25 μM (about 10 ppm), inducer 0.1 μg/mL (63 nM) α-MSH
Description: as §1
Cell samples having been treated by the inducer (α-MSH) and the to-be-tested substance were placed in a 6-well cell culture plate. 0.5˜2 mL of cell lysate was added. The culture plate was allowed to stand in a 65° C. constant-temperature oven for 2 h. Then, after the lysate was uniformly mixed, the lysate was added to a 96-well assay plate at 150 μL/well. The absorbancy (OD) value was measured at 450 nm wavelength.

Skin [5] = assay: Efficacy for actual volunteer population (skin elasticity and skin tone, CK instrument); assay type: in vivo, human; details: 20 ppm in basic cream, whole face; 14th and 28th days
Description: Test population: experimental group of 15 people, placebo group of 15 people (31-54 years old, female).
Method of use: volunteers used the cream once every morning and evening, with 1 g per use, and uniformly applied the cream on the whole face.
Test instrument: CK instrument.
Test method: using cutometer and Colorimeter probes of the CK instrument to respectively perform a skin elasticity test and a skin tone test on a random side cheek of each volunteer, in a constant-temperature and constant-humidity environment, […]

[6] = tested on: Human immortalized keratinocytes HaCaT; details: about 24 μM/10 ppm; UVA 15 J/cm^2
Description: The plate was placed under a specific ultraviolet device, and UVA irradiation dose was 15 J/cm^2. After the induction was completed, the drug-containing PBS was removed, and replaced with a culture medium containing the to-be-tested sample, and they were placed in a carbon dioxide incubator.
ROS detection: after 24 h, a certain amount of DCFH-DA working solution was used in replacement. Incubation was performed in the dark for 15˜30 min. Washing was performed for 3˜5 times with serum-free culture medium. 100 μL of serum-free culture medium was added.
Cell viability detection: after 24 h, a serum-free culture medium containing 10% of CCK-8 was used in replacement. After incubation of 2˜4 h in a carbon dioxide incubator, an OD value was detected at 450 nm wavelength.
HaCat with damage induced by a certain dose of UVA was chosen, to construct a keratinocyte UVA damage cell model.

3T3 cell = details: GB/T 21769-2008
rabbit corneal cell SIRC = assay: SIRC corneal cell irritation test (ocular irritation SIRC model); assay type: cell-based
Description: Detection method was rabbit corneal cell SIRC cell viability test. To-be-tested cells were washed 1˜2 times with PBS. 100 μL of MEM complete medium and 10 μL of CCK-8 solution were added to each well, and placed in a carbon dioxide incubator, for incubation of 2˜4 h. The absorbancy (OD) value was measured at 450 nm wavelength. CCK-8 reagent can be replaced with MTT.

H2O2-induced HaCaT cells = assay: Anti-aging repair test for stratum corneum cell under oxidative stress (H2O2); assay type: cell-based, human; details: 24 h sample repair after H2O2 damage
Description: In order to study the anti-aging repair efficacy of the raw material of the present disclosure to stratum corneum cell under oxidative stress, according to Anti-wrinkly and Firming Lifting Efficacy Test of Cosmetics—In vitro Test Method of Reactive Oxygen Species (ROS) Inhibition with keratinocytes (Association Standard T/SHRH 032-2020), oxidative damage cell models were constructed with H2O2-induced HaCaT cells, and relative proliferation rate and ROS expression quantity of the cells were respectively measured.
Washing was performed for 3˜5 times with a serum-free culture medium. 100 μL of serum-free culture medium was added.

CCOC1=C(O)C(=O)O[C@@H]1[C@@H](O)COC(=O)[C@H](Cc1c[nH]cn1)NC(=O)CCN [Example 1, 3-O-ethyl ascorbic acid-L-carnosine]
improvement of ATP expression compared with blank group [1]: 25.0%
activity of fibroblasts after UVA irradiation [2]: significantly up-regulating the activity of fibroblasts after UVA irradiation
generation of free radical ROS after UVA, HFF [2]: significantly inhibiting the generation of free radical ROS
hydroxyproline HYP after UVA, HFF [2]: significantly activating collagen precursor hydroxyproline HYP
Test Conclusion, Skin patch test and trial test (Skin [3]): pass
HET-CAM irritation conclusion (chorioallantoic membrane; 10 ppm solution sample): non-irritant
IS (HET-CAM) (chorioallantoic membrane; 10 ppm solution sample, SN/T 2329-2009): 0
Test Conclusion, Ocular irritation HET-CAM model (chorioallantoic membrane; SN329-2009): pass
Test Conclusion, Blood cell hemolysis test model (Blood cell): pass
collagen I generation versus EAC, dipeptide monomer and their mixture [4]: more significant effect on promoting collagen generation
tyrosinase inhibition versus EAC, L-carnosine and their physical mixture (tyrosinase): better capability of inhibiting tyrosinase
melanin inhibition (in words) (B16 mouse melanoma cells; listed as EAC-L-Carnosine): significant effect of inhibiting melanin secretion
melanin inhibition (in words) (B16 mouse melanoma cells; listed as EAC-L-carnosine): significantly improved capability of inhibiting final melanin
down-regulation of melanin secretion (B16 mouse melanoma cells; 24.25 μM, B16 cells, α-MSH inducer): 27.85%
ITA skin tone of the test group population (Skin [5]): significant trend of elevation
activity of keratinocytes after UVA irradiation [6]: up-regulating the activity of keratinocytes after UVA irradiation
generation of free radical ROS after UVA, HaCaT [6]: significantly inhibiting the generation of free radical ROS
hydroxyproline HYP after UVA, HaCaT [6]: significantly activating collagen precursor hydroxyproline HYP
Test Conclusion, Phototoxicity 3T3 cell model (3T3 cell): pass
SIRC irritation conclusion (rabbit corneal cell SIRC; 10 ppm solution sample): no irritant
CSR (SIRC cell viability) (rabbit corneal cell SIRC; 10 ppm solution sample, SN/T 3084.2-2014): 106.0
Test Conclusion, Ocular irritation SIRC model (rabbit corneal cell SIRC; OECD 491): pass
ROS expression quantity after H2O2 damage (H2O2-induced HaCaT cells): significantly down-regulate the ROS expression quantity
cell activity after H2O2 damage (H2O2-induced HaCaT cells): significantly improve cell activity
